Experimental data as given in publication PMC11546061, “Development and Evaluation of ABI-171, a New Fluoro-Catechin Derivative, for the Treatment of Idiopathic Pulmonary Fibrosis” (International Journal of Molecular Sciences, 2024).
Like-named read-outs stand apart in the source and are kept apart here.

Legend:
[1] = system: bleomycin-induced pulmonary fibrosis; test: Preventive bleomycin-induced IPF model (treatment from Day 0); assay type: in vivo, C57BL/6 mice; settings: for body weight: Day 14 to 21 vs BLM model group, ABI compounds 60 mg/kg QD intranasal, pirfenidone 100 mg/kg oral thrice daily; for alveolitis and PF degrees (H&E and Masson staining): relative to bleomycin group; for hydroxyproline content in lung tissues: 21 days
Text: Consequently, we opted for intranasal delivery in our first IPF animal model, employing a validated BLM mouse model. […] The experiment considered the day of bleomycin injection as Day 0. […] The experiment was completed after 21 days.
In the preventive model, male C57BL/6 mice, aged 8–10 weeks, were used to simulate the early intervention scenario where treatment begins immediately following the induction of lung injury. […] On day 0, pulmonary fibrosis was induced by administering a single intratracheal infusion of bleomycin at a dose of 3 U/kg body weight, dissolved in 50 μL of sterile saline. Treatment with the test compounds commenced immediately after bleomycin administration and continued daily for 21 days. Body weight, survival rate, and clinical signs were monitored throughout the study.
At the end of the study period, the mice were sacrificed, and their lungs were harvested for histological and biochemical analyses. Lung tissues were fixed in 10% formalin and embedded in paraffin for histological examination using hematoxylin and eosin (H&E) staining to assess tissue morphology, and Masson’s trichrome staining to evaluate collagen deposition. Additionally, lung hydroxyproline content, a marker of collagen accumulation, was quantified using a colorimetric assay. Inflammatory cell infiltration was assessed by counting lymphocytes and neutrophils in bronchoalveolar lavage fluid (BALF).

[2] = system: bleomycin-induced pulmonary fibrosis; test: Therapeutic bleomycin-induced IPF model (treatment from Day 7); assay type: in vivo, C57BL/6 mice
Text: In this study, drug treatment commenced 7 days post-induction of pulmonary fibrosis using BLM, employing a therapeutic model.
Pulmonary fibrosis was induced by a single intratracheal infusion of bleomycin at a dose of 3 U/kg body weight. Seven days post-bleomycin administration, when fibrosis was established, treatment with the test compounds commenced and continued daily for an additional 21 days.
Throughout the treatment period, body weight, survival rate, and clinical signs were monitored. At the study’s conclusion, mice were sacrificed, and their lungs were harvested for comprehensive histological and biochemical analyses. Lung tissues were processed for H&E and Masson’s trichrome staining to evaluate fibrosis and collagen deposition. Lung hydroxyproline content was measured to quantify collagen accumulation. Inflammatory cell infiltration in BALF was assessed by counting lymphocytes and neutrophils.

[3] = target: DYRK1A (Homo sapiens, UniProt Q13627); test: DYRK1A kinase inhibition; assay type: biochemical
[4] = target: PIM1 (Homo sapiens, UniProt P11309); test: PIM1 kinase inhibition; assay type: biochemical
[5] = Pharmacokinetics and lung-tissue distribution after single IV, IN or PO dose; assay type: in vivo, C57BL/6 mice
Protocol: Plasma concentrations were measured using LC-MS/MS, and PK parameters were calculated with WinNonlin. […] The formulation is based on the solubilizer and penetration enhancer (2-hydroxypropyl)-β-cyclodextrin (HP-β-CD), PEG-400, and water.
They were given a commercial mice chow and water ad libitum. The experiments started after acclimation for at least 1 week. Dosing solutions were made fresh. Fasted mice were administered the test drug by oral (PO), intranasal (IN), and intravenous (IV) routes. […] […] […] Blood was collected into K2EDTA microtubes, kept on ice all the time and centrifuged within 30 min of collection. Blood samples in EDTA vacuum tubes were centrifuged at 4 °C at 15,000× g for 4 min; ~250 µL of plasma was collected into polyethylene tubes containing 50 µL of the ascorbic acid (AA)/TCEP stabilizing solution (20 mM AA and 13 mM TCEP in 50 mM K2HPO4 buffer. The pH of the solution was adjusted to 6.5 using 2 M NaOH). After collection, the plasma samples were immediately snap-frozen in isopropanol/carbon-dioxide dry ice and stored at −80 °C until analysis.
Test catechin was extracted from the above-collected plasma through 3 successive additions of 350 µL of acetonitrile. The plasma and solvent mixture were vortex-mixed for 2 min then snap-frozen with isopropanol/carbon-dioxide dry ice and the extraction solvent was removed. The solvent fractions were pooled into a polyethylene tube kept on ice. The combined fractions were evaporated under a gentle stream of nitrogen at ambient temperature. The residue obtained after evaporation was reconstituted in 200 µL of 75 mM citric acid/25 mM ammonium acetate: acetonitrile (75:25, by vol), vortexed vigorously for 5 min, and 20 µL of the resulting solution was injected into the HPLC column. Lung tissue was collected and treated immediately to avoid product degradation. Within 5 min of extraction, about ~0.4 g of the tissue was homogenized with 1 mL of ice-cold 0.4 M sodium phosphate buffer containing 6 mg of ascorbic acid and 0.5 mg of Na2EDTA (final pH of 6.5). After centrifugation at 4 °C at 15,000× g for 4 min, the supernatant was collected into polyethylene tubes containing 50 µL of the AA/TCEP stabilizing solution (20 mM AA and 13 mM TCEP in 50 mM K2HPO4 buffer. The pH of the solution was adjusted to 6.5 using 2 M NaOH), immediately snap-frozen in isopropanol/carbon-dioxide dry ice and stored at −80 °C until analysis. Extraction was performed as described above for plasma.

[6] = target: PIM2 (Homo sapiens, UniProt Q9P1W9); test: PIM2 kinase inhibition; assay type: biochemical
Text: Table 1 Best DYRK1A inhibitors. | column: PIM2 IC50

[7] = parameters: method as in PMID 36986543; settings: mouse, plasma, cited from earlier work
[8] = target: PIM3 (Homo sapiens, UniProt Q86V86); test: PIM3 kinase inhibition; assay type: biochemical
Text: Table 1 Best DYRK1A inhibitors. | column: PIM3 IC50

[9] = intranasal 50 mg/kg QD, from day 7 post-BLM
[10] = oral 100 mg/kg QD, from day 7 post-BLM
[11] = tissues from Group 4, vs BLM group
[12] = C57BL/6, inhaled or intranasal, mouse, IN (60 mg/kg), lung
[13] = vs BLM group, 60 mg/kg QD intranasal
[14] = vs BLM group, 60 mg/kg QD intranasal, p < 0.05
[15] = oral 100 mg/kg once daily, from day 7 post-BLM
[16] = C57BL/6, mouse, IV (10 mg/kg), plasma

PIM1, sequence (P11309 whole entry, species assumed): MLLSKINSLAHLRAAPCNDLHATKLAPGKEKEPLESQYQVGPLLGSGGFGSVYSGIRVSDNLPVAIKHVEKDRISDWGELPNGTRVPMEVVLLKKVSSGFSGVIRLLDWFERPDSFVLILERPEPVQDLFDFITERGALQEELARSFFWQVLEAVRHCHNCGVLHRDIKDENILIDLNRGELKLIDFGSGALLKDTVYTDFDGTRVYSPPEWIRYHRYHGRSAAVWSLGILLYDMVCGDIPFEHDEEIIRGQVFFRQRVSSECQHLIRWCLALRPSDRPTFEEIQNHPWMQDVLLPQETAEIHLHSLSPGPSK
PIM2, sequence (Q9P1W9 whole entry, species assumed): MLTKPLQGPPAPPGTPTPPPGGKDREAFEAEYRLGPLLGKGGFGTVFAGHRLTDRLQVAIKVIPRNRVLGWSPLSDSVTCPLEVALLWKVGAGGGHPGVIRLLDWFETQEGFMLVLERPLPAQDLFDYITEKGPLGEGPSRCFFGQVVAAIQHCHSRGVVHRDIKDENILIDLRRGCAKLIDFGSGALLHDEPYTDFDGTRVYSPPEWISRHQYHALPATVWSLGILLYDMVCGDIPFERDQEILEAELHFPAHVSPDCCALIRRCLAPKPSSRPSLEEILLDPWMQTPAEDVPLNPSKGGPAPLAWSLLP

For `Cc1ccc(=O)n(-c2ccccc2)c1` [pirfenidone, Pirfenidone, reference compound], the body weight [1] was “significant increase in body weight”.
For `COc1cc(C(=O)O[C@@H]2Cc3c(O)cc(O)cc3O[C@H]2c2cc(O)c(O)c(O)c2)c(F)c(O)c1O` [ABI-171], the “BLM-induced lung collagen level” value ([2]; day 21 of treatment) was “significant reductions”, the “BLM-induced lung fibronectin level” value ([2]; day 21 of treatment) was “significant reductions” and the body weight [2, 9] was “good recovery in body weight”. For the same compound, the survival [2, 9] was “complete survival”, the “BLM-induced lung injuries, Masson's and H&E scores” value ([2]; intranasal 10 and 50 mg/kg, oral 100 mg/kg QD) was “improvements” and the body weight [2, 10] was “good recovery in body weight”. The survival [2, 10] was “complete survival”, the “E-cadherin levels in lung” value ([2]; oral treatment, tissues from Group 4) was “significantly elevated” and the “PIM1 level in lung” value [2, 11] was “significantly reduced”. For the same compound, the “Smad3 (p-Smad3) levels in lung” value [2, 11] was “significantly reduces”, the “Snail expression in lung” value [2, 11] was “reduce Snail expression” and the “αSMA level in lung” value [2, 11] was “downregulating”. It also gave an IC50 ([3]; read-out: DYRK1A IC50) of 73 nM, an IC50 [4] of 87 nM and an AUC(0-inf) [5, 12] of 23200 ng·h/mL. For the same compound, the AUC(0-t) [5, 12] was 23100 ng·h/mL, the Tmax [5, 12] was 4 h and the half-life [5, 12] was 3.93 h. For the same compound, the Cmax ([5]; C57BL/6, inhaled or intranasal, mouse, IN (60 mg/kg), lung, read-out: Cmax) was 8740 ng/g, the AUC(0-t) ([5]; C57BL/6, mouse, PO (100 mg/kg), lung) was 214 ng·h/mL and the Cmax ([5]; C57BL/6, mouse, PO (100 mg/kg), lung, read-out: Cmax) was 231 ng/g. It also gave a Cmax ([5]; IN route (60 mg/kg), total not unbound drug, read-out: theoretical cellular concentration in the lungs at Cmax) of roughly 17.8 µM, a Tlast ([5]; mouse, IN (60 mg/kg), lung) of 24 h and a Tlast ([5]; mouse, PO (100 mg/kg), lung) of 24 h. The body weight [1] was “significant increase in body weight”, the “alveolitis and PF degrees (H&E and Masson staining)” value ([1]; 60 mg/kg QD intranasal) was “decrease in the alveolitis and PF degrees” and the “hydroxyproline content in lung tissues” value [1, 13] was “significantly decreased”. For the same compound, the “lymphocytes (BALF)” value [1, 14] was “significantly reduced”, the “neutrophils (BALF)” value [1, 14] was “significantly reduced” and the IC50 [6] was 255 nM. For the same compound, the Tlast ([7]; IN (60 mg/kg)) was 24 h, the “CL(IV)” value ([7]; IV (5 mg/kg)) was 60 mL/min/kg and the “Vz(IV)” value ([7]; IV (5 mg/kg)) was 17 L/kg. The “CL/F (PO)” value ([7]; PO (100 mg/kg)) was 101 mL/min/kg, the “F (absolute oral bioavailability, PO/IV)” value ([7]; PO (100 mg/kg)) was 16% and the Tlast ([7]; PO (100 mg/kg)) was 24 h. The “Vz/F (PO)” value ([7]; PO (100 mg/kg)) was 15.6 L/kg and the IC50 [8] was 813 nM.
With `O=C(O[C@@H]1Cc2c(O)cc(O)cc2O[C@@H]1c1cc(O)c(O)c(O)c1)c1cc(O)c(O)c(O)c1` [EGCG, Epigallocatechin gallate, reference compound] the “activity in various assessments” value [2, 15] was “limited to moderate activity”, the mortality [2, 15] was 50% and the IC50 [3] was 235 nM. The IC50 [4] was 1360 nM, the bioavailability ([5]; C57BL/6, mouse, lung, po, 100 mg/kg, read-out: F (absolute oral bioavailability, PO/IV)) was 2% and the Vd/F ([5]; C57BL/6, mouse, lung, po, 100 mg/kg, read-out: Vz/F (PO)) was 2680 L/kg. For the same compound, the AUC(0-inf) [5, 16] was 1830 ng·h/mL, the AUC(0-t) [5, 16] was 1800 ng·h/mL and the half-life [5, 16] was 5.7 h. For the same compound, the Cmax ([5]; C57BL/6, mouse, IV (10 mg/kg), plasma, read-out: Cmax) was 4420 ng/mL, the Vd ([5]; C57BL/6, mouse, IV (10 mg/kg), plasma, read-out: Vz(IV)) was 45.2 L/kg and the T1/2 ([5]; EGCG column, PO (100 mg/kg), head prints Lung) was 5 h.
With `O=C(O[C@@H]1Cc2c(O)cc(O)cc2O[C@H]1c1cc(O)c(O)c(O)c1)c1c(F)c(O)c(O)c(O)c1F` [ABI-154] the IC50 ([3]; read-out: DYRK1A IC50) was 28 nM, the IC50 [4] was 722 nM and the body weight [1] was “no body weight gain effect”. The “alveolitis and PF degrees (H&E and Masson staining)” value ([1]; 60 mg/kg QD intranasal) was “decrease in the alveolitis and PF degrees”, the “hydroxyproline content in lung tissues” value [1, 13] was “significantly decreased” and the IC50 [6] was 1080 nM. For the same compound, the Tlast ([7]; PO (100 mg/kg)) was 24 h and the IC50 [8] was 6000 nM.
